Measurements reported in US20040132969A1, “Antibodies, peptides, analogs and uses thereof” (priority 2000, published 2004).
“Also recorded” adds a separate entry of the source. Where no end group is shown, it is not given here.

How the values were obtained:
HUVEC and fibroblasts [1] = experiment: Neutral Red cell metabolism cytotoxicity assay; format: cell-based, human; conditions: for cytotoxicity / cell viability, Neutral Red assay: HUVEC and fibroblast monocultures, 72 hours
Experimental: (§1) In order to determine whether the fibrin E analogue peptides WTM33, WTM34, WTM35, WTM36, and WTM37 are cytotoxic when applied to the HUVEC and fibroblasts used in the Angiosys™ angiogenesis assay, these reagents were examined in two different cytotoxicity assays. To simplify performance of these assays and discriminate between fibroblasts and HUVEC, cells were grown in monocultures rather than together and then treated with the experimental reagents as described below.
A Neutral Red cell metabolism assay was used to determine the cytotoxicity to HUVEC and fibroblasts of the fibrin E analogue peptides. This assay works on the basis of colorimetric measurement of a red dye which, is reported to be taken up into the lysosomes of uninjured cells. Thus the stronger the colour signal obtained from a well of cells, the greater the percentage of cells remaining viable within that well. HUVEC cells were inoculated into wells of 96 wells at a density of 5×10^3 cells per well, in endothelial cell culture medium. Fibroblasts were similarly seeded 5×10^3 cells per well. The cells were incubated for 24 hours under standard conditions to permit adherence and growth, and then treated for 72 hours with fresh medium containing fibrin E peptides over the same range of concentrations used in the Angiosys™ angiogenesis assay. For each concentration of each of the six peptides, four replicate wells of each cell type were treated and then assayed. Following incubation with the test compounds, the medium was removed and replaced with 200 μl per well of fresh medium containing 3.57 mg neutral red per 100 ml. The cells were incubated with this neutral red solution for 3 hours, after which this solution was decanted and replaced with 100 μl 1% formaldehyde/1% CaCl2. This was rapidly decanted and replaced in turn with 200 μl 50% ethanol/1% acetic acid, which was incubated at room temperature for 30 minutes to extract the neutral red from the cells. The plates were then read in a 96 well plate-format spectrophotometer, measuring absorbance at 540 nm. Mean absorbance values from each group of four wells were calculated and expressed as a percentage±standard deviation of the mean value obtained from control wells incubated in the absence of fibrin E analogue peptide.

HUVEC and fibroblasts [2] = experiment: BrdU ELISA cell proliferation cytotoxicity assay; format: cell-based, human; conditions: for cytotoxicity / cell proliferation, BrdU assay: HUVEC and fibroblast monocultures, 24 hours
Experimental: as §1
Cytotoxicity of the fibrin E peptide analogues was also determined by examining cell proliferation, using a commercial BrdU ELISA (Roche Molecular Biochemicals) performed according to the manufacturer's instructions. This assay quantifies DNA synthesis as a measure of cellular proliferation, as stimulation or inhibition of cell replication will require a concomitant change in the rate of DNA synthesis. Measurement of DNA synthesis is achieved by incubating proliferating cells in medium in which thymidine has been replaced with the pyrimidine analogue 5-bromo-2′-deoxyuridine (BrdU). Once incorporated into the cellular DNA, BrdU is measured by immunoassay. Briefly, HUVEC and fibroblasts were seeded as monocultures into 96 well plates at a density of 5×10^3 cells per well, to a final volume of 100 μl per well in endothelial cell culture medium. At the end of an initial culture period of 72 hours under standard conditions, while the cells were still proliferating, fibrin E analogue peptides were added to a range of final concentrations, as shown in the FIG. 8. Each treatment concentration of each peptide was administered to four replicate wells. Control cells received standard medium without test compounds. The cells were incubated for 24 hours with the test compounds, before 10 μl of stock BrdU solution (100 μM) was added to give a final concentration of 10 μM BrdU, and the cells were incubated for a further 2 hours. The test medium was then removed from the cells and replaced with 200 μl per well of Fixing/Denaturing solution, which was incubated on the cells for a further 30 minutes at room temperature. This was then replaced with 100 μl per well anti-BrdU-POD (mouse monoclonal clone BMG 6H8, Fab fragments conjugated to peroxidase) prepared as directed, which was left on the cells for a further 90 minutes at room temperature. The antibody conjugate was then removed from the wells by rinsing three times in 200 μl per well of washing buffer (PBS) before 100 μl well substrate solution (tetramethyl-benzidine) was added and incubated at room temperature until colour development was sufficient for photometric detection (approximately 15 minutes). Absorbance at 370 nm was measured on a multi-well plate ELISA plate reader (Dynatech), with a reference wavelength of 492 nm. Mean absorbance values from each group of four wells were calculated and expressed as a percentage±standard deviation of the mean value obtained from control wells incubated in the absence of fibrin E analogue peptide.

Chick fibroblasts = experiment: Cell immunohistochemistry; format: binding; conditions: 8 mg per ml; 2 hours
Experimental: Chick fibroblasts were cultured in a 25 cm^2 flask (Nunc) until confluent (approximately 3×10^6 cells). The cells were washed in PBS and then trypsinised and diluted to 3×10^5 cells per ml in Dulbecco modified medium with 10% foetal calf serum. […] of the cells suspension was plated into each well of a Nunc culture well slide. The cells were incubated overnight to allow adhesion and recovery from the passaging. Digoxygenin labelled fibrin fragment E was added to a final concentration of 8 mg per ml. Control wells contained unconjugated digoxygenin and PBS.
The cells were rinsed after 2 hours with PBS then washed 3 times in TBS followed by one wash in distilled water. The cells were then incubated for 2 hours with sheep anti-digoxygenin alkaline phosphatase. The slides were then washed three times in TBS and developed with NBT and BCIP in bicarbonate buffer pH 9.8. The slides were air dried and then mounted for observation of membrane staining under the microscope.

[3] = system: Chick fibroblasts, Cos7, mouse 3T3 and human embryonic lung cells (HEL); experiment: Cell binding assays (absorbance at 405 nm); conditions: 0-30 mg per well; 6 hours; each of the cell types
Experimental: Chick fibroblasts, Cos7, mouse 3T3 and human embryonic lung cells (HEL) were cultured in a 25 cm^2 flask (Nunc) until confluent (approximately 3×10^6 cells). The cells were trypsinised and resuspended at concentration of 1.3×10^5 cells/ml. 200 μl of this cell suspension was added to each well of a 96 well culture plate (Nunc). The cells were incubated overnight at 37° C. to allow adherence and recovery. The cells were then divided into three sections, digoxygenin controls, PBS controls and digoxygenin labelled fragment E tests. Increasing concentrations of digoxygenin and digoxygenin labelled fibrin fragment E were applied from 0-30 mg per well. The plates were incubated for 6 hours at 37° C. under culture conditions.
The plates were emptied of media and washed three times with PBS. The cells were then incubated for 2 hours with sheep antidigoxygenin alkaline phosphatase and developed with p-nitrophenyl phosphate in bicarbonate buffer pH 9.8. The plates were read on a Titertek Multiscan plate reader at 405 nm.

| Molecule | cytotoxicity / cell viability, Neutral Red assay (HUVEC and fibroblasts [1]) | cytotoxicity / cell proliferation, BrdU assay (HUVEC and fibroblasts [2]) | cytotoxicity / cell survival, Neutral Red assay (HUVEC and fibroblasts [1]; 3, 12, 100 μg/ml) | cytotoxicity / cell survival, BrdU assay (HUVEC and fibroblasts [2]; 3, 12, 100 μg/ml) | cell proliferation, BrdU assay (HUVEC and fibroblasts [2]; higher concentrations) | binding to cells (membrane staining) (Chick fibroblasts) | binding to cells (absorbance at 405 nm compared to controls) [3] |
| --- | --- | --- | --- | --- | --- | --- | --- |
| QLQEALLQQERPIRN [WTM35, QLQEALLQQERPIRN] | not cytotoxic; also recorded: no toxicity | not cytotoxic; also recorded: no toxicity | – | – | – | – | – |
| SLRPAPPPISGGGYR [WTM33, SLRPAPPPISGGGYR] | not cytotoxic | not cytotoxic | no effect on survival of either cell type | no effect on survival of either cell type | – | – | – |
| SSSSFQYMYLL [WTM37, SSSSFQYMYLL] | no toxicity to either cell type | no toxicity to either cell type | – | – | – | – | – |
| SVDELNNNVEAVSQT [WTM36, SVDELNNNVEAVSQT] | not cytotoxic; also recorded: no reduction in the viability of the cells | not cytotoxic; also recorded: exhibited an effect on the cell proliferation | – | – | potential for reduction in cell proliferation | – | – |
| fibrin fragment E: fibrin fragment E (55 kD), used digoxygenin labelled in binding experiments (protein) chain 1: GPRVVERHQSACKDSDWPFCSDEDWNYKCPSGCRMKGLIDEVNQDFTNRINKLKNSLFEYQK chain 2: GHRPLDKKREEAPSLRPAPPPISGGGYRARPAKAAATQKKVERKAPDAGGCLHADPDLGVLCPTGCQLQEALLQQERPIRNSVDELNNNVEAVSQTSSSSFQYMYLLK chain 3: YVATRDNCCILDERFGSYCPTTCGIADFLSTYQTKVDKDLQSLEDILHQVENKTSEVKQLIK | – | – | – | – | – | shown to bind | high absorbance |
